Columns and labels:
Type in all cases: cell-based, human
Aβ42 = Aβ42 in FAD1 iPS cell-derived nerve cells (primary/secondary screening, dose dependency); details: secondary screening, FAD1 iPS cell-derived nerve cells, numerical value (Aβ change rate)
From the text: (§1) To perform induction from iPS cells to the cerebral cortex nerve early and with high reproducibility, iPS cells introduced with human Neurogenin 2 gene (NGN2) linked to doxycycline-inducible promoter by using PiggyBac were used (FIG. 1a, FIG. 1b, FIG. 4a and FIG. 4b). IPS cells prepared from 4 patients with familial Alzheimer's disease (FAD), 2 patients with sporadic Alzheimer's disease (SAD) and 4 healthy individuals (HC) were used. The iPS cells were established by the method described in Okita K et al., Nature.
(§2) Structural formulas (those in the form of salt or halide are also described as free form) and the general names of the candidate compounds are shown in Table 1.
(§3) To further study reproducibility of the candidate drugs obtained by the primary screening, secondary screening was conducted. In addition to Aβ40, Aβ42, Aβ42/40 ratio, Aβ38, Aβ43, sAPPα, sAPPβ were also studied and each numerical value was obtained.

Aβ43 = Aβ43 in FAD1 iPS cell-derived nerve cells (secondary screening); set-up: scale not given here
Protocol: as §3

Aβ42/40 ratio = Aβ42/40 ratio in FAD1 iPS cell-derived nerve cells (primary/secondary screening, dose dependency); details: secondary screening
From the text: as §1, §2, §3

sAPPβ = sAPPβ in FAD1 iPS cell-derived nerve cells (secondary screening); set-up: sAPPβ: scale not given here; details: secondary screening, FAD1 iPS cell-derived nerve cells
Protocol: as §3

Aβ38 = Aβ38 in FAD1 iPS cell-derived nerve cells (secondary screening); set-up: scale not given here
Protocol: as §3

sAPPα = sAPPα in FAD1 iPS cell-derived nerve cells (secondary screening); set-up: scale not given here; details: secondary screening, FAD1 iPS cell-derived nerve cells
Protocol: as §3

CCn1cc(C(=O)O)c(=O)c2cnc(N3CCCC3)nc21 [compound 69, PIROMIDIC ACID]
Aβ42 (Aβ42): 0.78
Aβ43 (Aβ43): 0.79
Ratio Aβ42/40 (Aβ42/40 ratio): 0.86
sAPPβ (sAPPβ): 0.69
Aβ38 (Aβ38): 1.01
sAPPα (sAPPα): 0.86

CCCCOC(=O)c1ccc(O)cc1 [compound 53, BUTYL PARABEN]
Aβ42 (Aβ42): 0.94
Aβ43 (Aβ43): 0.81
Ratio Aβ42/40 (Aβ42/40 ratio): 1.02
sAPPβ (sAPPβ): 0.69
Aβ38 (Aβ38): 1.04
sAPPα (sAPPα): 0.74

CC(C(O)c1ccc(O)cc1)N1CCC(Cc2ccccc2)CC1 (stereo not drawn) [compound 44, IFENPRODIL]
Aβ42 (Aβ42): 1
Aβ43 (Aβ43): 1.03
Ratio Aβ42/40 (Aβ42/40 ratio): 0.96
sAPPβ (sAPPβ): 1.09
Aβ38 (Aβ38): 1.23
sAPPα (sAPPα): 1.13

CCN(CC)CCOC(=O)C1(C2CCCCC2)CCCCC1 [compound 104, DICYCLOMINE]
Aβ42 (Aβ42): 0.93
Aβ43 (Aβ43): 0.82
sAPPβ (sAPPβ): 0.84
Aβ38 (Aβ38): 1.08
sAPPα (sAPPα): 0.81

CN(C)CCCN1c2ccccc2CCc2ccccc21 [compound 17, IMIPRAMINE]
Aβ43 (Aβ43): 1.27
sAPPβ (sAPPβ): 1.2
Aβ38 (Aβ38): 1.12

CN(C)CCOC(c1ccccc1)c1ccccc1 [compound 14, diphenhydramine]
Aβ42 (Aβ42): 0.98
Aβ43 (Aβ43): 0.97
sAPPβ (sAPPβ): 1.02
Aβ38 (Aβ38): 1.06
sAPPα (sAPPα): 0.97

CCCCOc1ccc(C(=O)CCN2CCCCC2)cc1 [compound 55, DYCLONINE]
Aβ42 (Aβ42): 0.94
Aβ43 (Aβ43): 0.9
Ratio Aβ42/40 (Aβ42/40 ratio): 0.99
sAPPβ (sAPPβ): 0.76
Aβ38 (Aβ38): 1.07
sAPPα (sAPPα): 0.83

C#C[C@]1(O)CC[C@H]2[C@@H]3CCC4=Cc5oncc5C[C@]4(C)[C@H]3CC[C@@]21C [compound 102, DANAZOL]
Aβ42 (Aβ42): 0.93
Aβ43 (Aβ43): 1.07
Ratio Aβ42/40 (Aβ42/40 ratio): 1.04
sAPPβ (sAPPβ): 0.81
Aβ38 (Aβ38): 1.02
sAPPα (sAPPα): 0.79

CC[C@H](C)C(=O)O[C@H]1C[C@@H](C)C=C2C=C[C@H](C)[C@H](CC[C@@H]3C[C@@H](O)CC(=O)O3)[C@H]21 [compound 46, LOVASTATIN]
Aβ42 (Aβ42): 0.98
Aβ43 (Aβ43): 1.09
Ratio Aβ42/40 (Aβ42/40 ratio): 0.88
sAPPβ (sAPPβ): 1.06
Aβ38 (Aβ38): 1.17
sAPPα (sAPPα): 1.01

CN(C)CCN(Cc1ccc(Cl)cc1)c1ccccn1 [compound 129, CHLOROPYRAMINE]
Aβ42 (Aβ42): 0.83
Aβ43 (Aβ43): 0.89
Ratio Aβ42/40 (Aβ42/40 ratio): 0.81
sAPPβ (sAPPβ): 0.86
Aβ38 (Aβ38): 0.96
sAPPα (sAPPα): 0.87

FC(F)(F)COCC(F)(F)F [compound 130, FLUROTHYL]
Aβ42 (Aβ42): 0.8
Aβ43 (Aβ43): 0.81
Ratio Aβ42/40 (Aβ42/40 ratio): 0.85
sAPPβ (sAPPβ): 0.69
Aβ38 (Aβ38): 1.03
sAPPα (sAPPα): 0.79

CSc1ccc2c(c1)C(N1CCN(C)CC1)Cc1ccccc1S2 (stereo not drawn) [compound 31, METITEPINE]
Aβ42 (Aβ42): 0.83
Aβ43 (Aβ43): 0.88
Ratio Aβ42/40 (Aβ42/40 ratio): 0.86
sAPPβ (sAPPβ): 0.66
Aβ38 (Aβ38): 1.03
sAPPα (sAPPα): 0.76

Cc1c(C(N)=O)cc([N+](=O)[O-])cc1[N+](=O)[O-] [compound 95, DINITOLMIDE]
Aβ42 (Aβ42): 0.9
Aβ43 (Aβ43): 0.98
Ratio Aβ42/40 (Aβ42/40 ratio): 0.95
sAPPβ (sAPPβ): 1.02
Aβ38 (Aβ38): 1
sAPPα (sAPPα): 0.95

CC1(C)C2CC[C@@]1(C)C(=O)C2 [compound 101, CAMPHOR (1R)]
Aβ42 (Aβ42): 0.95
Aβ43 (Aβ43): 0.91
Ratio Aβ42/40 (Aβ42/40 ratio): 1.01
sAPPβ (sAPPβ): 0.87
Aβ38 (Aβ38): 1.08
sAPPα (sAPPα): 0.92

O=C(O)[C@H]1/C(=C/CO)O[C@@H]2CC(=O)N21 [compound 118, CLAVULANIC ACID]
Aβ42 (Aβ42): 0.84
Aβ43 (Aβ43): 0.75
Ratio Aβ42/40 (Aβ42/40 ratio): 0.88
sAPPβ (sAPPβ): 1
Aβ38 (Aβ38): 1.01
sAPPα (sAPPα): 0.88

Nc1c2c(nc3ccccc13)CCCC2 [compound 18, TACRINE]
Aβ42 (Aβ42): 1
Aβ43 (Aβ43): 1.21
Ratio Aβ42/40 (Aβ42/40 ratio): 1.02
sAPPβ (sAPPβ): 1.23
Aβ38 (Aβ38): 1.18
sAPPα (sAPPα): 1.04

Cc1cc2c(cc1S(N)(=O)=O)S(=O)(=O)CCC2 [compound 119]
Aβ42 (Aβ42): 0.74
Aβ43 (Aβ43): 1.16
Ratio Aβ42/40 (Aβ42/40 ratio): 0.78
sAPPβ (sAPPβ): 0.87
Aβ38 (Aβ38): 1.14
sAPPα (sAPPα): 1.07

CC(C)n1c(/C=C/[C@H](O)C[C@@H](O)CC(=O)O)c(-c2ccc(F)cc2)c2ccccc21 [compound 60, FLUVASTATIN]
Aβ42 (Aβ42): 0.96
Aβ43 (Aβ43): 1.04
Ratio Aβ42/40 (Aβ42/40 ratio): 0.84
sAPPβ (sAPPβ): 1.14
Aβ38 (Aβ38): 1.16
sAPPα (sAPPα): 0.99

CN(C/C=C/C#CC(C)(C)C)Cc1cccc2ccccc12 [compound 5, TERBINAFINE]
Aβ42 (Aβ42): 0.94
Aβ43 (Aβ43): 0.94
Ratio Aβ42/40 (Aβ42/40 ratio): 0.96
sAPPβ (sAPPβ): 1.06
Aβ38 (Aβ38): 1.06
sAPPα (sAPPα): 0.98

Oc1c(Cl)cc(Cl)cc1Sc1cc(Cl)cc(Cl)c1O [compound 88, BITHIONOL]
Aβ42 (Aβ42): 0.93
Aβ43 (Aβ43): 0.85
Ratio Aβ42/40 (Aβ42/40 ratio): 0.97
sAPPβ (sAPPβ): 0.92
Aβ38 (Aβ38): 1.03
sAPPα (sAPPα): 0.78

O=C(O)c1cc(=O)c2c(OCC(O)COc3cccc4oc(C(=O)O)cc(=O)c34)cccc2o1 [compound 11, CROMOLYN]
Aβ42 (Aβ42): 0.88
Aβ43 (Aβ43): 0.82
Ratio Aβ42/40 (Aβ42/40 ratio): 0.96
sAPPβ (sAPPβ): 0.86
Aβ38 (Aβ38): 1.04
sAPPα (sAPPα): 0.89

CN(C)C(=O)C(CCN1CCC(O)(c2ccc(Cl)cc2)CC1)(c1ccccc1)c1ccccc1 [compound 6, LOPERAMIDE]
Aβ42 (Aβ42): 0.88
Aβ43 (Aβ43): 0.88
Ratio Aβ42/40 (Aβ42/40 ratio): 0.93
sAPPβ (sAPPβ): 0.78
Aβ38 (Aβ38): 1.03
sAPPα (sAPPα): 0.89

Nc1nc(=S)c2[nH]cnc2[nH]1 [compound 122, THIOGUANINE]
Aβ42 (Aβ42): 0.69
Aβ43 (Aβ43): 0.92
Ratio Aβ42/40 (Aβ42/40 ratio): 0.88
sAPPβ (sAPPβ): 0.9
Aβ38 (Aβ38): 0.91
sAPPα (sAPPα): 0.95

COc1cc2c(cc1OC)[C@@]13CCN4CC5=CCO[C@H]6CC(=O)N2[C@H]1[C@H]6[C@H]5C[C@H]43 [compound 106, BRUCINE]
Aβ42 (Aβ42): 0.98
Aβ43 (Aβ43): 0.87
Ratio Aβ42/40 (Aβ42/40 ratio): 1.04
sAPPβ (sAPPβ): 0.85
Aβ38 (Aβ38): 1.13
sAPPα (sAPPα): 0.84

NCC(=O)CCC(=O)O [compound 47, AMINOLEVULINIC ACID]
Aβ42 (Aβ42): 1.06
Aβ43 (Aβ43): 1.16
Ratio Aβ42/40 (Aβ42/40 ratio): 0.97
sAPPβ (sAPPβ): 1.4
Aβ38 (Aβ38): 1.29
sAPPα (sAPPα): 1.15

CN1[C@@H]2CC[C@@H]1CC(OC(=O)C(O)c1ccccc1)C2 (stereo partly drawn) [compound 16, HOMATROPINE]
Aβ42 (Aβ42): 1.04
Aβ43 (Aβ43): 1.09
sAPPβ (sAPPβ): 1.24
Aβ38 (Aβ38): 1.22
sAPPα (sAPPα): 1.15

CNCCCN1c2ccccc2CCc2ccccc21 [compound 13, DESIPRAMINE]
Aβ42 (Aβ42): 0.94
Aβ43 (Aβ43): 0.9
sAPPβ (sAPPβ): 1.01
sAPPα (sAPPα): 0.83

O=C(O)COCCN1CCN([C@H](c2ccccc2)c2ccc(Cl)cc2)CC1 [compound 30, LEVOCETIRIZINE]
Aβ42 (Aβ42): 0.76
Aβ43 (Aβ43): 0.85
sAPPβ (sAPPβ): 0.93
Aβ38 (Aβ38): 0.98
sAPPα (sAPPα): 0.93
